In US12485105B2, “Composition for suppressing obesity” (DAICEL CORPORATION, priority 2019, dated 2025):

How the values were obtained:
[1] = system: C57BL/6 male mice; experiment: Plasma glucose, cholesterol and insulin of mice fed high-fat diet with 8PN; format: in vivo; conditions: 8 weeks; for increase in the blood concentration of glucose: vs Group 4, FIG. 8; for increase in the blood concentration of cholesterol: vs Group 4, FIG. 9; for increase in the blood concentration of insulin: vs Group 4, FIG. 10
Source text: (§1) C57BL/6 male mice (available from Japan SLC, Inc.) were arranged into the following six groups of six mice each. Note that, 8-prenylnaringenin (may be described herein as 8PN) was used as the prenylflavonoid of the present embodiment. • (Group 1) Group that ingested a normal diet without the addition of 8PN • (Group 2) Group that ingested a normal diet with the addition of 8PN (final concentration: 0.0005%) • (Group 3) Group that ingested a normal diet with the addition of 8PN (final concentration: 0.005%) • (Group 4) Group that ingested a high-fat diet without the addition of 8PN • (Group 5) Group that ingested a high-fat diet with the addition of 8PN (final concentration: 0.0005%) • (Group 6) Group that ingested a high-fat diet with the addition of 8PN addition (final concentration: 0.005%)
(§2) AIN-93M feed was used as the normal diet (control diet), and AIN-93M feed containing 30% lard was used as the high-fat diet. These feeds were mixed with 8PN for Group 2, Group 3, Group 5 and Group 6.
(§3) The mice were each raised in individual cages, were allowed to freely consume each feed and deionized water, and were raised for 8 weeks. The rearing environment included a temperature of 22±2° C., humidity without artificial control, and light-dark cycles alternated every 12 hours. After 8 weeks, the mice were slaughtered by drawing blood from the heart under co-anesthesia of sevoflurane and somnopentyl, after which each mouse was weighed to measure the body weight. Next, subcutaneous adipose tissue, brown adipose tissue, mesenteric adipose tissue, perirenal adipose tissue, and epididymal adipose tissue were extracted from each mouse, and the fat weight in each tissue was measured by weighing with a scale. The total weight of adipose tissue other than the brown adipose tissue was calculated as the weight of white adipose tissue from the extracted fat.
Example 2 was carried out in the same manner as Example 1 up to the slaughtering of the mice. Blood was drawn from each mouse at the time of slaughtering and was centrifuged at 5000 rpm for 10 minutes, and plasma was obtained from the supernatant. The amount of glucose was measured using the Glucose CII Test Wako Kit (available from Fujifilm Wako Pure Chemical Corporation), and the amount of insulin was measured using the LBIS (trade name) Mouse Insulin ELISA Kit (RTU) (available from Fujifilm Wako Pure Chemical Corporation). In addition, the amount of cholesterol was measured using the LabAssay Cholesterol Kit (available from Fujifilm Wako Pure Chemical Corporation).

[2] = reported, Patent Document 1; cited from earlier work
[3] = reported, Patent Document 2; cited from earlier work
[4] = system: C57BL/6 male mice; experiment: Body weight and adipose tissue fat weights of mice fed normal or high-fat diet with 8PN for 8 weeks; format: in vivo; conditions: for increase in the fat weight of the subcutaneous adipose tissue: vs Group 4, FIG. 2; for increase in the fat weight of the brown adipose tissue: vs Group 4, FIG. 3; for increase in the fat weight of the mesenteric adipose tissue: vs Group 4, FIG. 4; for increase in the fat weight of the perirenal adipose tissue: vs Group 4, FIG. 5; for increase in the fat weight of the epididymal adipose tissue: vs Group 4, FIG. 6; for increase in the fat weight of the white adipose tissue: vs Group 4, total of adipose tissue other than brown, FIG. 7
Source text: as §1, §2, §3

[5] = reported, Non-Patent Document 1; cited from earlier work
[6] = molecular target: T1, pig-derived pancreatic lipase II (Sus scrofa, UniProt P00591); experiment: Pancreatic lipase activity inhibition (triolein substrate, free fatty acids by NEFA C-Test); format: biochemical; conditions: 8PN final concentration 1.0, 2.0, 4.0, 7.0 or 10.0 mg/mL; 37° C., 30 minutes; FIG. 12
T1 construct: purchased Sigma
T1 sequence (P00591 1-450): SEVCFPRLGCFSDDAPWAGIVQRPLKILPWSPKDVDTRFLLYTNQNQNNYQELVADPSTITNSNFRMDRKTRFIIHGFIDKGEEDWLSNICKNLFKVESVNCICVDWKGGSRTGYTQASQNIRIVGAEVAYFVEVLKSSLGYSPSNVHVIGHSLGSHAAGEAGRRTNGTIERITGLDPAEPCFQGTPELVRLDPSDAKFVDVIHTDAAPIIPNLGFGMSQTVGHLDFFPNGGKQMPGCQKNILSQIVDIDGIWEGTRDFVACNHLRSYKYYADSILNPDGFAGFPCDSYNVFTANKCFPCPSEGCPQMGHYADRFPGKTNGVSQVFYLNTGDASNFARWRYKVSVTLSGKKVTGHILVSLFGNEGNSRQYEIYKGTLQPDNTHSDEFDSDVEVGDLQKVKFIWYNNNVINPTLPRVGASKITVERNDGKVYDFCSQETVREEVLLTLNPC
Protocol: An enzyme solution was prepared by dissolving pig-derived pancreatic lipase II (available from Sigma) in a 100 mM Tris-HCl buffer solution (pH 7.0) to make a final concentration of 250 μg/mL. In addition, 80 mg of triolein, 10 mg of lecithin, and 5 mg of sodium cholate were dissolved in 9 mL of a 100 mM tris-HCl buffer solution (pH 7.0), and the mixture was subjected to ultrasonic treatment for 10 minutes to prepare a substrate solution that was a homogeneous suspension. […] The reaction was stopped by a heating treatment at 100° C. for 2 minutes, and the amount of free fatty acids was measured through absorbance at a wavelength of 550 nm using the NEFA C-Test Wako Kit (available from Fujifilm Wako Pure Chemical Corporation). […]
Also note that a control was prepared in the same manner as described above with the exception that DMSO was used instead of 8PN. […] The lipase activity inhibition rate was calculated by the following calculation equation (1). Lipase activity inhibition rate (%)={1−((B−A)/(C−A))}×100 (1) • A: Absorbance of blank • B: Absorbance of test reaction solution • C: Absorbance of control

[7] = system: C57BL/6 male mice; experiment: Thigh muscle weight of mice fed normal or high-fat diet with 8PN; format: in vivo; conditions: 8 weeks, p<0.05, FIG. 11
Source text: as §1, §2, §3
Example 3 was implemented in the same manner as Example 1 up to the slaughtering of the mice. At the time of the slaughtering, the thigh muscles were removed from each mouse, and the weight of each muscle was measured by weighing with a scale.

[8] = system: 3T3-L1 cells; conditions: reported, Non-Patent Document 2; cited from earlier work
[9] = system: SREBP; conditions: in rats; reported, Non-Patent Document 4; cited from earlier work
[10] = system: rats; conditions: administration to rats; reported, Non-Patent Document 3; cited from earlier work
[11] = Group 5: high-fat diet with 8PN 0.0005%
[12] = Group 6: high-fat diet with 8PN 0.005%

Compound: CC(C)=CCc1c(O)cc(O)c2c1O[C@H](c1ccc(O)cc1)CC2=O [8PN, 8-prenylnaringenin]
- increase in the blood concentration of glucose [1, 11]: suppressed
- increase in the blood concentration of cholesterol [1, 11]: suppressed
- increase in the blood concentration of insulin [1, 11]: suppressed
- increase in the blood concentration of glucose [1, 12]: suppressed
- increase in the blood concentration of cholesterol [1, 12]: suppressed
- increase in the blood concentration of insulin [1, 12]: suppressed
- angiogenesis inhibition [2]: exhibits
- suppression of muscle disuse atrophy [3]: exhibits
- increase in body weight ([4]; Group 5: high-fat diet with 8PN 0.0005%, vs Group 4 (high-fat diet without 8PN), FIG. 1): suppressed
- increase in the fat weight of the subcutaneous adipose tissue [4, 11]: suppressed
- increase in the fat weight of the brown adipose tissue [4, 11]: suppressed
- increase in the fat weight of the mesenteric adipose tissue [4, 11]: suppressed
- increase in the fat weight of the perirenal adipose tissue [4, 11]: suppressed
- increase in the fat weight of the epididymal adipose tissue [4, 11]: suppressed
- increase in the fat weight of the white adipose tissue [4, 11]: suppressed
- increase in body weight ([4]; Group 6: high-fat diet with 8PN 0.005%, vs Group 4, FIG. 1): suppressed
- increase in the fat weight of the subcutaneous adipose tissue [4, 12]: suppressed
- increase in the fat weight of the brown adipose tissue [4, 12]: suppressed
- increase in the fat weight of the mesenteric adipose tissue [4, 12]: suppressed
- increase in the fat weight of the perirenal adipose tissue [4, 12]: suppressed
- increase in the fat weight of the epididymal adipose tissue [4, 12]: suppressed
- increase in the fat weight of the white adipose tissue [4, 12]: suppressed
- estrogen activity [5]: exhibits
- lipase activity inhibition rate [6]: increased in a manner dependent on the concentration of 8PN
- weight of the thigh muscle ([7]; Group 2: normal diet with 8PN 0.0005%, vs Group 1 (normal diet without 8PN)): increased
- weight of the thigh muscle ([7]; Group 3: normal diet with 8PN 0.005%, vs Group 1): increased
- weight of the thigh muscle ([7]; Group 5: high-fat diet with 8PN 0.0005%, vs Group 4): increased
- weight of the thigh muscle ([7]; Group 6: high-fat diet with 8PN 0.005%, vs Group 4): increased

Compound: COc1cc(O)c(CC=C(C)C)c(O)c1C(=O)/C=C/c1ccc(O)cc1 [xanthohumol]
- differentiation of 3T3-L1 cells [8]: has an effect of suppressing
- lipid synthesis [8]: an effect of suppressing
- SREBP activation and lipid synthesis [9]: suppresses
- weight gain [10]: suppressed
